The subject of this assay is BDF1 mice, P388 leukemia ip, median survival T/C. In words: NCI In Vivo Anticancer Drug Screen. Data for tumor model P388 Leukemia (intraperitoneal) in B6D2F1 (BDF1) mice. The note with it: endpoint: median survival time, higher = longer survival. Summed up:
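Steps: implant the tumour, treat one group with compound and another with vehicle, record survival, then divide treated by control.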

The mark [1] stands for this setting: dose: 12.5 micrograms/kg/injection, schedule: Q01DX009 (ip), vehicle: saline + alcohol.

“And” between values parts separate entries of the source, which are not always exact repeats. Identical values can stand only once. Toxic doses and inconclusive results are not listed. Starred links: 1 amine or outer side, 2 acyl side, 3 side chain; linkers in the order of their positions; H or OH if unused. Positions of bridges follow the written chain, without caps; N, C: chain ends. Non-standard residues stand in square brackets, D forms with d. Residues, ends and D or L forms follow the SMILES beside them. Chains are numbered I, II in the order given. Actinocin(1to9) = Cc1c2oc3c(C)ccc(C(=O)[*:2])c3nc-2c(C(=O)[*:1])c(N)c1=O; NMeV = CN[CH](C(=O)O)C(C)C; Aze = O=C(O)[CH]1CCN1; Sar = CNCC(=O)O

As to `COc1ccc2c(OC)c3ccoc3nc2c1OC`, the T/C is 89 % of control (dose: 1.57 mg/kg/injection, schedule: Q01DX009 (ip), vehicle: Klucel (hydroxypropylcellulose) (HPC)); 89 % of control (dose: 3.13 mg/kg/injection, schedule: Q01DX009 (ip), vehicle: Klucel (hydroxypropylcellulose) (HPC)); 101 % of control (dose: 6.25 mg/kg/injection, schedule: Q01DX009 (ip), vehicle: Klucel (hydroxypropylcellulose) (HPC)).
For `C=C(C)C12CC(COC(=O)c3ccccc3)C34OC5(OC1C3C1OC1(CO)C(O)C1(O)C(OC(=O)c3ccccc3)C(C)C(C(C)CCCCCCC5O)C14)O2` (centres undefined), the T/C reads like this: (dose: 0.25 mg/kg/injection, schedule: Q01DX009 (ip), vehicle: saline) 113 % of control; (dose: 0.5 mg/kg/injection, schedule: Q01DX009 (ip), vehicle: saline) 122 % of control; (dose: 0.75 mg/kg/injection, schedule: Q01DX009 (ip), vehicle: saline) 150 % of control; (dose: 0.5 micrograms/kg/injection, schedule: Q01DX009 (ip), vehicle: saline + alcohol) 111 % of control; (dose: 0.8 micrograms/kg/injection, schedule: Q01DX009 (ip), vehicle: gum acacia) 100 % of control; (dose: 0.8 micrograms/kg/injection, schedule: Q01DX009 (ip), vehicle: saline + alcohol) 124 % of control. Also, the T/C (dose: 0.8 micrograms/kg/injection, schedule: Q01DX009 (ip), vehicle: saline with Tween-80) is 162 % of control; the T/C (dose: 1.0 micrograms/kg/injection, schedule: Q01DX009 (ip), vehicle: saline + alcohol) was 108 % of control; the T/C (dose: 1.6 micrograms/kg/injection, schedule: Q01DX009 (ip), vehicle: saline + alcohol) was 238 % of control; the T/C (dose: 1.6 micrograms/kg/injection, schedule: Q01DX009 (ip), vehicle: saline with Tween-80) is 175 % of control; the T/C (dose: 2.0 micrograms/kg/injection, schedule: Q01DX009 (ip), vehicle: saline + alcohol) is 104 % of control; the T/C (dose: 3.1 micrograms/kg/injection, schedule: Q01DX009 (ip), vehicle: saline + alcohol) is 153 % of control. Further, the T/C was 175 % of control (dose: 3.1 micrograms/kg/injection, schedule: Q01DX009 (ip), vehicle: saline with Tween-80); 120 % of control (dose: 6.3 micrograms/kg/injection, schedule: Q01DX009 (ip), vehicle: gum acacia); 175 % of control (dose: 6.3 micrograms/kg/injection, schedule: Q01DX009 (ip), vehicle: saline + alcohol); 118 % of control (dose: 12.5 micrograms/kg/injection, schedule: Q01DX009 (ip), vehicle: gum acacia); 179 % of control under setting [1]; 120 % of control (dose: 25.0 micrograms/kg/injection, schedule: Q01DX009 (ip), vehicle: gum acacia). The T/C (dose: 50.0 micrograms/kg/injection, schedule: Q01DX009 (ip), vehicle: gum acacia) is 124 % of control.
`Cc1c2oc3c(C)ccc(C(=O)NC4C(=O)NC(C(C)C)C(=O)N5CCCC5C(=O)N(C)CC(=O)N(C)C(C(C)C)C(=O)OC4C)c3nc-2c(C(=O)NC2C(=O)NC(C(C)C)C(=O)N3CCC3C(=O)N(C)CC(=O)N(C)C(C(C)C)C(=O)OC2C)c(N)c1=O` (centres undefined) (I: TV[Aze][Sar][NMeV] / II: TVP[Sar][NMeV]; ester I:1-I:C, II:1-II:C; linker I:N-II:N via Actinocin(1to9); configuration not given here): the T/C was 201 % of control (dose: 0.26 mg/kg/injection, schedule: Q04DX003 (ip), vehicle: saline); 265 % of control and 168 % of control (dose: 0.3 mg/kg/injection, schedule: Q04DX003 (ip), vehicle: saline + alcohol); 250 % of control (dose: 0.4 mg/kg/injection, schedule: Q04DX003 (ip), vehicle: saline); 256 % of control and 223 % of control (dose: 0.45 mg/kg/injection, schedule: Q04DX003 (ip), vehicle: saline + alcohol); 230 % of control and 159 % of control (dose: 0.6 mg/kg/injection, schedule: Q04DX003 (ip), vehicle: saline + alcohol); 373 % of control (dose: 0.6 mg/kg/injection, schedule: Q04DX003 (ip), vehicle: saline). For the same compound, the T/C is, setting by setting: (dose: 0.9 mg/kg/injection, schedule: Q04DX003 (ip), vehicle: saline + alcohol) 123 % of control and 219 % of control; (dose: 0.9 mg/kg/injection, schedule: Q04DX003 (ip), vehicle: saline) 551 % of control; (dose: 1.2 mg/kg/injection, schedule: Q04DX003 (ip), vehicle: saline + alcohol) 97 % of control and 117 % of control; (dose: 1.3 mg/kg/injection, schedule: Q04DX003 (ip), vehicle: saline) 551 % of control; under setting [1], 197 % of control; (dose: 25.0 micrograms/kg/injection, schedule: Q01DX009 (ip), vehicle: saline + alcohol) 218 % of control. In addition, the T/C by setting is: (dose: 50.0 micrograms/kg/injection, schedule: Q01DX009 (ip), vehicle: saline + alcohol) 263 % of control; (dose: 75.0 micrograms/kg/injection, schedule: Q04DX003 (ip), vehicle: saline + alcohol) 205 % of control; (dose: 100.0 micrograms/kg/injection, schedule: Q01DX009 (ip), vehicle: saline + alcohol) 270 % of control; (dose: 112.5 micrograms/kg/injection, schedule: Q01DX009 (ip), vehicle: saline + alcohol) 265 % of control; (dose: 150.0 micrograms/kg/injection, schedule: Q01DX009 (ip), vehicle: saline + alcohol) 212 % of control; (dose: 150.0 micrograms/kg/injection, schedule: Q04DX003 (ip), vehicle: saline + alcohol) 226 % of control and 153 % of control. For the same compound, the T/C by setting is: (dose: 200.0 micrograms/kg/injection, schedule: Q01DX009 (ip), vehicle: saline + alcohol) 622 % of control; (dose: 225.0 micrograms/kg/injection, schedule: Q01DX009 (ip), vehicle: saline + alcohol) 105 % of control; (dose: 300.0 micrograms/kg/injection, schedule: Q01DX009 (ip), vehicle: saline + alcohol) 95 % of control; (dose: 300.0 micrograms/kg/injection, schedule: Q04DX003 (ip), vehicle: saline + alcohol) 250 % of control and 197 % of control; (dose: 450.0 micrograms/kg/injection, schedule: Q01DX009 (ip), vehicle: saline + alcohol) 94 % of control; (dose: 600.0 micrograms/kg/injection, schedule: Q04DX003 (ip), vehicle: saline + alcohol) 385 % of control and 388 % of control. Besides, under “dose: 1200.0 micrograms/kg/injection, schedule: Q04DX003 (ip), vehicle: saline + alcohol”, the T/C is 104 % of control.
On to `C/C=C/C(=O)OCC1CC[N+](C)([O-])C1` (centres undefined), for which the T/C by setting is: (dose: 200.0 mg/kg/injection, schedule: Q01DX001 (ip), vehicle: saline) 91 % of control; (dose: 200.0 mg/kg/injection, schedule: Q01DX009 (ip), vehicle: saline) 117 % of control; (dose: 400.0 mg/kg/injection, schedule: Q01DX001 (ip), vehicle: saline) 91 % of control; (dose: 800.0 mg/kg/injection, schedule: Q01DX001 (ip), vehicle: saline) 100 % of control; (dose: 800.0 mg/kg/injection, schedule: Q01DX009 (ip), vehicle: saline) 99 % of control; (dose: 1600.0 mg/kg/injection, schedule: Q01DX001 (ip), vehicle: saline) 95 % of control.
Turning to `O=C(c1c(F)c(F)c(F)c(F)c1F)N1CC1`, the T/C was 106 % of control (dose: 25.0 mg/kg/injection, schedule: Q01DX009 (ip), vehicle: water); 104 % of control (dose: 25.0 mg/kg/injection, schedule: Q04DX003 (ip), vehicle: water); 111 % of control (dose: 50.0 mg/kg/injection, schedule: Q01DX009 (ip), vehicle: water); 91 % of control (dose: 50.0 mg/kg/injection, schedule: Q04DX003 (ip), vehicle: water); 111 % of control (dose: 100.0 mg/kg/injection, schedule: Q01DX009 (ip), vehicle: water); 106 % of control (dose: 100.0 mg/kg/injection, schedule: Q04DX003 (ip), vehicle: water). Also, the T/C reads like this: (dose: 200.0 mg/kg/injection, schedule: Q01DX009 (ip), vehicle: water) 97 % of control; (dose: 200.0 mg/kg/injection, schedule: Q04DX003 (ip), vehicle: water) 106 % of control; (dose: 400.0 mg/kg/injection, schedule: Q01DX009 (ip), vehicle: water) 100 % of control; (dose: 400.0 mg/kg/injection, schedule: Q04DX003 (ip), vehicle: water) 100 % of control.
As for `COC(=O)c1cc(Cl)cc(C(=O)OC)c1`, the T/C is 100 % of control (dose: 100.0 mg/kg/injection, schedule: Q04DX003 (ip), vehicle: saline with Tween-80); 90 % of control (dose: 200.0 mg/kg/injection, schedule: Q04DX003 (ip), vehicle: saline with Tween-80); 95 % of control (dose: 400.0 mg/kg/injection, schedule: Q04DX003 (ip), vehicle: saline with Tween-80).
On to `O=S(=O)(O)O.[Co+3].[Co+3].[NH2-].[NH2-].[NH2-].[NH2-].[NH2-].[NH2-].[NH2-].[NH2-].[NH2-].[NH2-].[O-][O-]`, for which the T/C is, setting by setting: (dose: 1.56 mg/kg/injection, schedule: Q01DX009 (ip), vehicle: saline) 97 % of control; (dose: 3.13 mg/kg/injection, schedule: Q01DX009 (ip), vehicle: saline) 98 % of control; (dose: 6.25 mg/kg/injection, schedule: Q01DX009 (ip), vehicle: saline) 97 % of control.

The values are drawn from PubChem BioAssay AID328 (DTP/NCI, 2004).
